In patent publication US20170172955A1, “Treatment of Mixed Dyslipidemia” (priority 2015, published 2017):
Read-outs that look alike come from different tables or passages of the source.

How the values were obtained:
CYP2C19 = CYP2C19 (Homo sapiens, UniProt P33261); experiment: biochemical
Protocol: (§1) Human livers, HLM141, HLM143, and HLM144 were selected from the University of Washington Human Liver Bank for this study. […] The actual concentrations used for each of the other probes are specified below. […] The seven isoforms and the metabolic pathway of each of the probes used to monitor specific isoform activity are listed below.
CYP2C19: The 4′-hydroxylation of (S)-mephenytoin (50 μM). The reaction is monitored by quantitative GC/MS using mephenytoin-(d3-methyl) as the internal standard.

fibrinogen = experiment: Fibrinogen levels in humans, post hoc analysis of study A4141001; format: in vivo, human; set-up: Mean Final FIBR / Mean Change FIBR: unit not given here; conditions: for Change in Fibrinogen, Difference (Gem - Placebo): MITT; for Fibrinogen Change, Difference (Gem-placebo) / Mean % Change FIBR / Mean Change FIBR / Mean Final FIBR / Fibrinogen Change, LS Mean (SE): subjects with fibrinogen baseline >400 mg/dL
Protocol: Week 0) and the end (Visit T8, Week 8). Analyses of covariance (ANCOVA) methods used in the original study A4141001 were again utilized in these analyses. For fibrinogen, baseline was defined as the last pretreatment visit, and endpoint was the last visit up to and including the day after last dose of medication. The least-squares means and p-values for change from baseline in fibrinogen were calculated using an ANCOVA model with the effects of baseline lipid value and treatment. Also, medians and p-values for percent change from baseline. […] This, consequently, was the definition for the modified intent-to treat (MITT) population.

CYP2C9 = CYP2C9 (Homo sapiens, UniProt P11712); experiment: biochemical
Protocol: as §1
CYP2C9: The 7-hydroxylation of (S)-warfarin (4 μM). The reaction is monitored by quantitative GC/MS using 7-hydroxywarfarin-(d5-phenyl) as the internal standard.

CYP2E1 = CYP2E1 (Homo sapiens, UniProt P05181); experiment: biochemical
Protocol: as §1
CYP2E1: The formation of p-nitrocatechol from p-nitrophenol (40 μM). Amounts of product formed are monitored by HPLC.

CYP2A6 = target: T1, CYP2A6 (Homo sapiens, UniProt P11509); experiment: biochemical
T1 sequence (P11509 1-494): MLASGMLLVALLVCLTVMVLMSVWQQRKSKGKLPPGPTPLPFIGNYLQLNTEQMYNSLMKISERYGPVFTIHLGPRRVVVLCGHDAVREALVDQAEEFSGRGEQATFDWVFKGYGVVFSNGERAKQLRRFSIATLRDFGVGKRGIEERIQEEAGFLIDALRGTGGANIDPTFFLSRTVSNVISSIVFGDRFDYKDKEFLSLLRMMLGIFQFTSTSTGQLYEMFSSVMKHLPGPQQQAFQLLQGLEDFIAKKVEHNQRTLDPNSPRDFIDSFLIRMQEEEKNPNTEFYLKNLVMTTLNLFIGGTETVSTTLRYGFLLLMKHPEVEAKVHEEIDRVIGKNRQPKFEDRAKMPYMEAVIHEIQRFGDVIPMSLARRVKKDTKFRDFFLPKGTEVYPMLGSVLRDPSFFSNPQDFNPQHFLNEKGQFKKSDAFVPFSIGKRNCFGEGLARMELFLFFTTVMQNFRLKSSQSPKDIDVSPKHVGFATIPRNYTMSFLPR
Protocol: as §1
CYP2A6: The 7-hydroxylation of coumarin (4 μM). The reaction is monitored by HPLC using florescence detection.

[1] = system: cholesterol and triglyceride synthesis; experiment: Inhibition of plasma and hepatic cholesterol and triglyceride synthesis in apoB100/Lp(a) mice; format: in vivo, mouse
Protocol: The apoB100/Lp(a) (cross of mice transgenic for human apoB100 and human apo(a)) mice) were obtained from Charles River. There were 8 animals per treatment group. […] Mice were acclimated for a minimum of 7 days to a reverse 12 hour light/12 hour dark cycle prior to administration of the first dose of test drug or vehicle. […] Test drugs and vehicle were given once daily. Thirty minutes after the eighth dose, 12.5 μCi [^14C] sodium acetate was administered. […] Individual plasma samples were acquired by placing whole blood samples into EDTA loaded centrifuge tubes and centrifuged. Plasma was transferred to new tubes and stored at −20° C. until assayed for [^14C] labeled cholesterol. Liver samples were flash frozen in liquid nitrogen and stored at −80° C. until assayed for [^14C] labeled cholesterol and triglycerides. Assay for plasma [^14C] labeled cholesterol. […] Additionally, 0.025 μCi […] (Perkin Elmer Life Sciences Inc. Boston, Mass.) was added to each sample, and to 2 or 3 spike controls in 7-mL scintillation vials, as an extraction internal standard. […] Samples were vortexed and saponified at 75° C. for 1 hour. After the samples cooled […] [^14C] labeled cholesterol was extracted with 2.5 mL petroleum ether per sample and shaken for 10 minutes, and then centrifuged for 10 minutes at 0° C. […] Each sample was then dissolved in 0.25 mL of 2 parts chloroform to 1 part per methanol by sonication. Five mL scintillant was added to each sample and the spike controls for direct [^3H] and [^14C] […] per minute (DPM) recording using a Packard 2500TR Tri-Carb Liquid Scintillation Analyzer. […] Assay for liver [^14C] labeled cholesterol and triglycerides. Frozen liver samples were kept on dry ice during sample weighing procedures and assay preparations. Each sample was homogenized in a solution of ice-cold methanol;0.5 N acetic acid. […] Samples were then vortexed and centrifuged for 20 minutes at 3000 rpm at room temperature to separate the phases. The lower chloroform layer was transferred to new vials. The remaining upper aqueous phase was extracted in like manner with 15 mL chloroform 2 more times. […] The aqueous phase was discarded and the chloroform phase was washed 2 times in like manner with 15 mL 1 part methanol to 1 part water, discarding the aqueous phase. The chloroform samples were evaporated under nitrogen gas, and resuspended in 600 μL chloroform and 30 μL removed for scintillation counting. Sample volumes were adjusted for corrected percent recovery and a calculated volume to load based on total liver weight. Calculated volumes were spotted onto TLC plates and dried in an 80° C. oven. After the plates had cooled to room temperature, they were developed in 102 mL isooctane:diethyl ether:glacial acetic acid, 75:25:2, respectively. Plates were dried in an 80° C. oven and allowed to cool to room temperature, wrapped in plastic wrap, and exposed to the phosphorimager screen. Imagequant software was used to quantitate cholesterol and triglyceride bands.

[2] = 100 mg/kg oral once daily, 8 doses

Sequence of CYP2E1 (P05181 whole entry): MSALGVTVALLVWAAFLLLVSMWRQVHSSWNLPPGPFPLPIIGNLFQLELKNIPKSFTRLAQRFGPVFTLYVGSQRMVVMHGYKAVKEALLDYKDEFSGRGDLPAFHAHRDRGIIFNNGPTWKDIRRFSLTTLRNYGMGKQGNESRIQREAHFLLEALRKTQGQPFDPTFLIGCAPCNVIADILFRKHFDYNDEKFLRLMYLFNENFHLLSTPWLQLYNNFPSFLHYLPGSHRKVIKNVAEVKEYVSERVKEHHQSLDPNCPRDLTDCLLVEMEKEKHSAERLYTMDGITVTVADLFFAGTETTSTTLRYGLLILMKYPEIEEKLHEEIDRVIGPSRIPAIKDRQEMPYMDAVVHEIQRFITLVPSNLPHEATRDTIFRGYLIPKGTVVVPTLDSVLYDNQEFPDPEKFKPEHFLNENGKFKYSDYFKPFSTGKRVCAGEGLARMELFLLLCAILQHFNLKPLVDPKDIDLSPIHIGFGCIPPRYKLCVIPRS
Sequence of CYP2C19 (P33261 whole entry, canonical isoform): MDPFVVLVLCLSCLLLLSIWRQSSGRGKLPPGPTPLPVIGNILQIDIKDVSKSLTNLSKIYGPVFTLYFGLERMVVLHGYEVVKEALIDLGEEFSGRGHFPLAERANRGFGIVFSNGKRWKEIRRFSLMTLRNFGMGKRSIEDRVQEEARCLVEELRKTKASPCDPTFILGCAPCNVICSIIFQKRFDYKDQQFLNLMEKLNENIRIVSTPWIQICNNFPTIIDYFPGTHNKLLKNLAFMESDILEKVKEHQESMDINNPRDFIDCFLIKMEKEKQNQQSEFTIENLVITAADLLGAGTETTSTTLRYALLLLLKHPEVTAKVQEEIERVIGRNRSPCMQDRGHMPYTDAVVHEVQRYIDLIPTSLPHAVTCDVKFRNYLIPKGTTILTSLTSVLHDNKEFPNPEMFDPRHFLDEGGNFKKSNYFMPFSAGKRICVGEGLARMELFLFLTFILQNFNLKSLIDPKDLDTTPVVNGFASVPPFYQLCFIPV
Sequence of CYP2C9 (P11712 whole entry): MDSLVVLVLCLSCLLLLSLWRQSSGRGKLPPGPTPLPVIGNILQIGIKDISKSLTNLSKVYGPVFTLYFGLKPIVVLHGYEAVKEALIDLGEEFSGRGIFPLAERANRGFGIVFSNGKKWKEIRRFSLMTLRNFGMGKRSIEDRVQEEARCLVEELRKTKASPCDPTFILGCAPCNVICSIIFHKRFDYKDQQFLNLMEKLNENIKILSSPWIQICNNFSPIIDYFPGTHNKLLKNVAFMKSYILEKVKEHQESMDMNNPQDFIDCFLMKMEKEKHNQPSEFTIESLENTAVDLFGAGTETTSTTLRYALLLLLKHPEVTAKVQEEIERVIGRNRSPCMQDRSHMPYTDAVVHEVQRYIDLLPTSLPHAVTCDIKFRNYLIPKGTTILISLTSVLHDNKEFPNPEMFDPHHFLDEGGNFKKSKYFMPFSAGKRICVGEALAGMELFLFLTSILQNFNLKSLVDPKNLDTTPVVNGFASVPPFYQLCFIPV

IC50 (CYP2C19): > 1500 µM
IC50 (CYP2C19; human, microsomes): > 1500 µM
IC50 (CYP2C9): > 1500 µM
IC50 (CYP2C9; human, microsomes): > 1500 µM
IC50 (CYP2E1): > 1500 µM
activity slightly enhanced (CYP2E1; human, 1500 μM): about 20%
IC50 (CYP2E1; human, microsomes): > 1500 µM
IC50 (CYP2A6): > 1500 µM
IC50 (CYP2A6; human, microsomes): > 1500 µM
SMILES: CC(C)(CCCCOCCCCC(C)(C)C(=O)O)C(=O)O [Gemcabene, 6,6′-oxybis(2,2-dimethylhexanoic acid)]
Change in Fibrinogen, Difference (Gem - Placebo) (fibrinogen; gemcabene 300 mg): −13.0
Change in Fibrinogen, Difference (Gem - Placebo) (fibrinogen; gemcabene 600 mg): −13.6
Change in Fibrinogen, Difference (Gem - Placebo) (fibrinogen; gemcabene 900 mg): −24.3
Fibrinogen Change, Difference (Gem-placebo) (fibrinogen; gemcabene 300 mg): 5.0
Mean % Change FIBR (fibrinogen; gemcabene 300 mg): 6.7%
Mean Change FIBR (fibrinogen; gemcabene 300 mg): 26.6
Mean Final FIBR (fibrinogen; gemcabene 300 mg): 454.4
Fibrinogen Change, LS Mean (SE) (fibrinogen; gemcabene 300 mg monotherapy): 26.0 (29.3)
Fibrinogen Change, Difference (Gem-placebo) (fibrinogen; gemcabene 600 mg): −62.5
Mean % Change FIBR (fibrinogen; gemcabene 600 mg): −9.3%
Mean Change FIBR (fibrinogen; gemcabene 600 mg): −41.4
Mean Final FIBR (fibrinogen; gemcabene 600 mg): 411.0
Fibrinogen Change, LS Mean (SE) (fibrinogen; gemcabene 600 mg monotherapy): −41.5 (28.9)
Fibrinogen Change, Difference (Gem-placebo) (fibrinogen; gemcabene 900 mg): −34.0
Mean % Change FIBR (fibrinogen; gemcabene 900 mg): −3.2%
Mean Change FIBR (fibrinogen; gemcabene 900 mg): −12.9
Mean Final FIBR (fibrinogen; gemcabene 900 mg): 435.9
Fibrinogen Change, LS Mean (SE) (fibrinogen; gemcabene 900 mg monotherapy): −13.0 (22.9)
Mean % Change FIBR (fibrinogen; gemcabene at any of the doses): −2.2%
Mean Change FIBR (fibrinogen; gemcabene at any of the doses): −9.8
Mean Final FIBR (fibrinogen; gemcabene at any of the doses): 434.1
inhibition of cholesterol synthesis as measured in plasma ([1]; 100 mg/kg): 60%
inhibition of newly synthesized cholesterol in liver tissue ([1]; 100 mg/kg): 65%
inhibition of newly synthesized triglycerides in liver tissue ([1]; 100 mg/kg): 66%
hepatic Cholesterol synthesis ([14C] sodium acetate), % Change from Vehicle [1, 2]: −65 ± 11 %
hepatic Triglycerides synthesis ([14C] sodium acetate), % Change from Vehicle [1, 2]: −66 ± 6 %
